Patent publication US9527066B2, “Dihydroxybipyridine complexes of ruthenium and iridium for water oxidation and hydrogenation” (The Board of Trustees of The University of Alabama, priority 2011, dated 2016)
Read-outs that look alike come from different tables or passages of the source.

Tests used:
[1] = Water oxidation with sodium periodate, Clark electrode
Description: Chem. Soc., 2010, vol. 132, pp. 16017-16029:

[2] = 5 μM catalyst; for 10 min: TOF / 10 min: TON / TOF: 20 mM NaIO4, pH 5.6, 25° C.; for TOF / Initial Rate: first 30 sec; for Initial Rate: 20 mM NaIO4, pH 5.6 NaOAc buffer, 25° C.
Method: Catalysts were used for water oxidation with NaIO4 as an oxidant.
20 mM of NaIO4 was added. The pH was 5.6 and NaOAc was used as a buffer. The vessel and catalyst solution were maintained at 25° C.

[3] = UV-Vis titration, Na2HPO4/HCl buffers pH 2.5-9.2; simultaneous removal of both ligand protons
Method: Approximately 100 mL of 0.1M Na2HPO4 was put into a beaker and stirred and the pH was recorded. 2 mL of 0.0000034M catalyst was put into 10 mL volumetric flasks (final concentration of Ir complex is 6.8 μM). 100 mL of 0.1M Na2HPO4 was titrated with 0.1M HCl until it reached the desired buffer pH (every 0.5 pH unit). At each desired buffer pH, 8 mL of the solution was put into the volumetric flasks. pH's used were as follows: 9.2, 8.0, 7.5, 7.0, 6.5, 6.0, 5.5, 5.0, 4.5, 4.0, 3.5, 3.0, 2.5. […] UV/Vis spectra for each solution were obtained (FIG. 5).

[4] = for TOF / TON: 5 μM catalyst, 20 mM NaIO4 in 180 mM NaOAc; for Enhancement as pH change from 3 to 6: ratio pH 6 to pH 3
Method: Catalysts of the formula Cp*IrCl(n,n′-DHBP)]Cl according to the present invention were used for water oxidation at a variety of different pH levels. These catalysts were the same catalysts as the first three catalysts used in Example 6.5 μM catalyst with 20 mM NaIO4 in 180 mM NaOAc were employed.

[5] = 17 mM NaIO4 as oxidant, 25° C.
Description: Rates were most linear from 30 to 240 seconds. […] In this analysis, the slope corresponds to reaction order in Ir catalyst.

[6] = 5 μM catalyst
Method: A catalyst according to the present invention [Cp*Ir^III(DHBP)Cl]Cl was used for water oxidation with cerium (IV) ammonium nitrate (CAN) as the oxidant. The reaction progress was monitored by a Clark electrode to measure the increase in dissolved oxygen with time in a sealed vessel. For longer reaction times, the amount of oxygen that builds up in the headspace is significant and was measured by pressure transducers. In the first set of experiments, the concentration of catalyst was 5 μM and CAN=67 mM at pH=6.0. […] A prior art catalyst, catalyst 15(Cat 15 in FIG. 4, “Cat 15+67 mM CAN”) was used as a comparison. The prior art Cat 15 is represented by the formula taken from Blakemore, et al., “Half-sandwich iridium complexes for homogeneous water-oxidation catalysis,” J. Am. Chem. Soc., 2010, vol. 132, pp. 16017-16029:
In a second set of experiments, the concentration of catalyst was 5 μM. Cat5 was used in a buffered aqueous solution at pH 5.6 with 17 mM sodium periodate as the oxidant, as shown in green in FIG. 4.

[7] = Hydrogenation of acetophenone, comparison of five catalysts; conditions: 0.02 mmole catalyst, 85-90° C., 24 hours unless x=18, y=20, z=21 hours
Method: Five catalysts were used to catalyze hydrogenation of acetophenone. The first four are represented by the following structures:
These catalysts are represented as 1-4 in Table 4. The last catalyst is [(η^6-p-cymene)RuCl2]2. The reaction mixture contained 0.02 mmole catalyst, 10 mmole of NaO2CH or 2 mmole of KOH, 0.667 mmole of 1,3,4-trimethoxybenzene as internal standard, and 10 mL solvent. The reaction was carried out under N2 at 85-90° C. for 24 hours unless otherwise stated (x=18 hours, y=20 hours, z=21 hours). The percentage conversion was determined by ^1H-NMR as an average of two trials.

[8] = Hydrogenation of imines with H2 in THF; conditions: substrate N-benzylidene-methylamine
Method: (§1) [drawing 11] was used for hydrogenation of several different organic substrates. For ketones, the reaction was carried out by mixing 1 mole % of catalyst, 10:90 of MeOH:water and NaO2CH, and heated to reflux for 16-18 hours. For imines, the reaction was carried out by mixing 1 mole % of catalyst, THF, NEt3 base (5 molar %) and 75 psi H2(g), with heating to reflux for 48 hours. The catalyst provided a very high percentage conversion for ketones in water.

[9] = Hydrogenation of ketones with NaO2CH in MeOH:water; conditions: for % conversion: 1 mole % catalyst, 10:90 MeOH:water, NaO2CH, reflux 16-18 hours
Method: as §1

[10] = Hydrogenation of acetophenone under various conditions; conditions: 90° C., 16-17 hours
Method: [drawing 12] was used to catalyze hydrogenation of acetophenone under various conditions. For each mole of the substrate, 5 moles of a base is used. The reaction is carried out at 90° C. for 16-17 hours.

[11] = first 30 seconds of reaction, 5 μM catalyst, 78 mM CAN, 25° C.
[12] = first 10 minutes of reaction, 5 μM catalyst, 78 mM CAN, 25° C.
[13] = 5 μM catalyst, pH 5.6 buffered, 17 mM sodium periodate
[14] = substrate 2-methoxy-acetophenone
[15] = substrate 4-methoxy-acetophenone

Cc1c(C)c(C)[c-](C)c1C.[Cl-].[Cl][Ir+2].c1ccc(-c2ccccn2)nc1 [Cat15, reference compound]
activity in water oxidation (in words) ([1]; 5 μM catalyst, pH 5.6, 17 mM oxidant ("under these conditions")): not active

Cc1c(C)c(C)[c-](C)c1C.Oc1ccnc(-c2cc(O)ccn2)c1.[Cl-].[Cl-].[Ir+3] [[Cp*IrCl(4,4′-DHBP)]Cl, [Cp*Ir(4,4′-dhbp)Cl]Cl]
10 min: TOF [2]: 11.87 min⁻¹ | 10 min: TON [2]: 118.70 | TOF [2]: 21.35 ± 3 min⁻¹ | Initial Rate [2]: 106.25 ± 3 μM O2 min^−1 | pKa [3]: 4.4±0.2 | TOF ([4]; pH = 3 for 10 minutes): 0 min⁻¹ | TON ([4]; pH = 3 for 10 minutes): 0 | TOF ([4]; pH = 6 for 10 minutes): 14 min⁻¹ | TON ([4]; pH = 6 for 10 minutes): 124 | Enhancement as pH change from 3 to 6 [4]: >124X | Initial Rate [11]: 81.25 ± 12 μmole O2 L^−1 min^−1 | TOF [11]: 16.33 ± 12 min⁻¹ | TOF [12]: 4.33 min⁻¹ | TON [12]: 43.34

Cc1c(C)c(C)[c-](C)c1C.Oc1cccc(-c2cccc(O)n2)n1.[Cl-].[Cl][Ir+2] [[Cp*IrCl(6,6′-DHBP)]Cl, [Cp*Ir(6,6′-DHBP)Cl]Cl]
TOF [1, 13]: 6.3 min⁻¹ | initial rate of oxygen generation [1, 13]: 31 µM/min | TOF ([1]; at higher NaIO4 concentrations): 18 min⁻¹ | TON ([1]; at higher NaIO4 concentrations, in 5 mM (so in the source)): 84 | TON ([1]; in 5 min, 5 μM catalyst, pH 5.6, 17 mM sodium periodate): 36 | 10 min: TOF [2]: 9.99 min⁻¹ | 10 min: TON [2]: 99.86 | TOF [2]: 10.04 ± 3 min⁻¹ | Initial Rate [2]: 50 ± 3 μM O2 min^−1 | pKa [3]: 4.6±0.1 | TOF ([4]; pH = 3 for 10 minutes): 0.14 min⁻¹ | TON ([4]; pH = 3 for 10 minutes): 1.3 | TOF ([4]; pH = 6 for 10 minutes): 14 min⁻¹ | TON ([4]; pH = 6 for 10 minutes): 120 | Enhancement as pH change from 3 to 6 [4]: 92X | slope of ln(rate) vs. ln([catalyst]) (reaction order in Ir catalyst) [5]: 0.94 | water oxidation (in words) ([6]; CAN=17 mM): does not oxidize water appreciably | TOF ([6]; CAN=67 mM, pH=6.0): 6.4 min⁻¹ | initial rate of oxygen evolution ([6]; CAN=67 mM, pH=6.0): 31 µM/min | TON ([6]; in 5 min, CAN=67 mM, pH=6.0): 14 | Initial Rate [11]: 75.00 ± 15 μmole O2 L^−1 min^−1 | TOF [11]: 15.07 ± 15 min⁻¹ | TOF [12]: 3.89 min⁻¹ | TON [12]: 38.93

Cc1c(C)c(C)[c-](C)c1C.[Cl-].[Cl-].[Ir+3].c1ccc(-c2ccccn2)nc1 [[Cp*IrCl(bipy)]Cl, reference compound]
10 min: TOF [2]: 0.064 min⁻¹ | 10 min: TON [2]: 0.64 | TOF [2]: 0 ± 3 min⁻¹ | Initial Rate [2]: 0 ± 3 μM O2 min^−1 | Initial Rate (as stated in text of Example 5): 72±3 mole O2 L^−1 s^−1 | turnover frequency (TOF) (as stated in text of Example 5): 14.4±0.7

Cc1ccc(C(C)C)cc1.Cc1ccc(C(C)C)cc1.[Cl][Ru][Cl].[Cl][Ru][Cl] [[p-cymRuCl2]2, [(η^6-p-cymene)RuCl2]2]
% conversion ([7]; KOH, ^1PrOH): 100% | % conversion ([7]; NaO2CH, 10/90 MeOH/H2O): 15% | % conversion ([7]; NaO2CH, 50/50 MeOH/H2O): 13% | % conversion ([7]; NaO2CH, H2O): 13%

Cc1ccc(C(C)C)cc1.Oc1cccc(-c2cccc(O)n2)n1.[Cl-].[Cl][Ru+] [drawing 11]
Turnover frequency [8]: 0.63 h⁻¹ | Turnover number [8]: 30 | % conversion ([8]; 1 mole % catalyst, THF, NEt3, 75 psi H2, reflux 48 hours): 30% | Turnover frequency [9, 14]: 8.83 h⁻¹ | Turnover number [9, 14]: 53 | % conversion [9, 14]: 53% | Turnover frequency ([9]; substrate 2′-acetonaphtone): 13.50 h⁻¹ | Turnover number ([9]; substrate 2′-acetonaphtone): 81 | % conversion ([9]; substrate 2′-acetonaphtone): 81% | Turnover frequency ([9]; substrate 4-bromo-acetophenone): 16.17 h⁻¹ | Turnover number ([9]; substrate 4-bromo-acetophenone): 97 | % conversion ([9]; substrate 4-bromo-acetophenone): 97% | Turnover frequency [9, 15]: 10.71 h⁻¹ | Turnover number [9, 15]: 65 | % conversion [9, 15]: 65% | Turnover frequency ([9]; substrate acetophenone): 16.17 h⁻¹ | Turnover number ([9]; substrate acetophenone): 97 | % conversion ([9]; substrate acetophenone): 97%

Cc1ccc(C(C)C)cc1.Oc1cccc(-c2cccc(O)n2)n1.[Cl-].[Cl][Ru+] [drawing 12]
% conversion ([10]; 1 mole % catalyst, NaO2CH, 10/90 MeOH/H2O): 97% | % conversion ([10]; 1 mole % catalyst, NaO2CH, 50/50 MeOH/H2O): 96% | % conversion ([10]; 1 mole % catalyst, NaO2CH, H2O): 31% | % conversion ([10]; 5 mole % catalyst, NaO2CH, H2O): 89% | % conversion ([10]; 5 mole % catalyst, NaO2CH/HO2CH, H2O): 89%
